Results reported in patent US20100311643A1, “USE OF GLP-1 AS A THERAPEUTIC AGENT” (priority 2007, published 2010).

System: drug-resistant Mycobacterium tuberculosis
Conditions: drug-resistant Mycobacterium tuberculosis growth; peptide 10 micrograms per ml; seven days

How did the “% inhibition” value turn out when `CC[C@H](C)[C@H](NC(=O)[C@H](Cc1ccccc1)NC(=O)[C@H](CCC(=O)O)NC(=O)[C@H](CCCCN)NC(=O)[C@H](C)NC(=O)[C@H](C)NC(=O)[C@H](CCC(N)=O)NC(=O)CNC(=O)[C@H](CCC(=O)O)NC(=O)[C@H](CC(C)C)NC(=O)[C@H](Cc1ccc(O)cc1)NC(=O)[C@H](CO)NC(=O)[C@H](CO)NC(=O)[C@@H](NC(=O)[C@H](CC(=O)O)NC(=O)[C@H](CO)NC(=O)[C@@H](NC(=O)[C@H](Cc1ccccc1)NC(=O)[C@@H](NC(=O)CNC(=O)[C@H](CCC(=O)O)NC(=O)[C@H](C)NC(=O)[C@H](Cc1c[nH]cn1)NC(=O)[C@H](CCCNC(=N)N)NC(=O)[C@H](CCC(=O)O)NC(=O)[C@H](Cc1ccccc1)NC(=O)[C@H](CCC(=O)O)NC(=O)[C@H](CC(=O)O)NC(=O)[C@@H](N)Cc1c[nH]cn1)[C@@H](C)O)[C@@H](C)O)C(C)C)C(=O)N[C@@H](C)C(=O)N[C@@H](Cc1c[nH]c2ccccc12)C(=O)N[C@@H](CC(C)C)C(=O)N[C@H](C(=O)N[C@@H](CCCCN)C(=O)NCC(=O)N[C@@H](CCCNC(=N)N)C(=O)NCC(=O)O)C(C)C` [GLP-1] was run?
The value was 0.0%.
